Values joined by “and” are separate entries in the source; they are usually repeats but may differ in a detail not shown here. Equal entries are not always repeated. Where two headings read alike, the source gives them in different places.
Tests used:
[1] = system: ASC; assay: ASC protein expression in HK-2 cells (Western blot); conditions: for asc / β (reference protein) ratio / asc protein expression, band value: HK-2, replicates 1-3; for ASC protein level in HK-2 cells: HUA cell model
[2] = system: IL-1β; assay: IL-1β content in serum and kidney of HUA mice (ELISA); format: in vivo; conditions: gigantol low, medium, high dose intragastric, vs model group
Method: (§1) Blood obtained from mice in each group was centrifuged at 3,000 r/min for 15 min in a low-temperature high-speed centrifuge. Then, the serum was separated, and the levels of UA, CRE, and BUN in the serum were measured by the kits. The levels of TNF-α, IL-1β, IL-6, and NLRP3 in serum were detected by ELISA kits. Liver and kidney tissues were homogenized by adding ice-cold saline, and homogenates were centrifuged at 12,000 r/min for 10 min. XOD activity in the supernatant of the liver tissues was measured, and the levels of TNF-α, IL-1β, IL-6, and NLRP3 in the supernatant of the kidney tissues were measures by ELISA kits.

[3] = system: NLRP3; assay: NLRP3 protein expression in HK-2 cells (Western blot); conditions: for NLRP3 / β (reference protein) ratio / NLRP3 protein expression, band value: HK-2, replicates 1-3; for NLRP3 protein level in HK-2 cells: HUA cell model
[4] = system: ASC; assay: ASC protein expression in kidney of HUA mice (Western blot); format: in vivo; conditions: gigantol high-dose group (20 mg/kg), vs model group, p < 0.001
[5] = system: IL-6; assay: IL-6 level in HK-2 HUA cell model (ELISA); format: cell-based, human; conditions: adenosine and XOD induction; gigantol 25, 50, 100 μmol/L
Method: (§2) HK-2 cells were treated as described above. The supernatant of the medium was collected, and the levels of proinflammatory cytokines (TNF-α, IL-6, and IL-1β) and the NLRP3 inflammasome component in the supernatant were detected using commercially available ELISA kits according to the manufacturers’ protocols.

[6] = system: IL-1β; assay: IL-1β content in HK-2 HUA cell model (ELISA); format: cell-based, human; conditions: only the high-dose group showing a downward trend (p < 0.01)
Method: as §2

[7] = system: XOD; conditions: for xod / β (reference protein) ratio / xod protein expression, band value: AML12, replicates 1-3; for XOD protein expression in AML12 cells: HUA cell model, gigantol 25, 50, 100 µmol/L, vs model group, p < 0.001
[8] = system: NLRP3; assay: NLRP3 content in serum and kidney of HUA mice (ELISA); format: in vivo; conditions: gigantol low, medium, high dose intragastric, vs model group
Method: as §1

[9] = 50 and 100 µmol/L gigantol, vs model group
[10] = gigantol intervention, especially high-dose group (p < 0.001), vs model

5-[2-(3-hydroxy-5-methoxyphenyl) ethyl]-2-methoxyphenol [gigantol]
asc / β (reference protein) ratio ([1]; 中 = gigantol 50 µmol/L): 0.7729 and 0.7908 and 0.8759 | asc protein expression, band value ([1]; 中 = gigantol 50 µmol/L): 134.385 and 146.868 and 166.261 | asc / β (reference protein) ratio ([1]; 低 = gigantol 25 µmol/L): 0.9783 and 1.053 and 1.058 | asc protein expression, band value ([1]; 低 = gigantol 25 µmol/L): 161.976 and 197.704 and 190.261 | asc / β (reference protein) ratio ([1]; 高 = gigantol 100 µmol/L): 0.7353 and 0.6853 and 0.7512 | asc protein expression, band value ([1]; 高 = gigantol 100 µmol/L): 136.893 and 134.134 and 146.281 | ASC protein level in HK-2 cells [1, 9]: significantly reduced | ASC protein level in HK-2 cells [1, 10]: decreased significantly | IL-1β level in kidney [2]: decreased | IL-1β level in serum [2]: decreased | NLRP3 / β (reference protein) ratio ([3]; 中 = gigantol 50 µmol/L): 0.7212 and 0.9246 and 0.7381 | NLRP3 protein expression, band value ([3]; 中 = gigantol 50 µmol/L): 125.385 and 171.712 and 140.12 | NLRP3 / β (reference protein) ratio ([3]; 低 = gigantol 25 µmol/L): 0.7726 and 0.9621 and 1.043 | NLRP3 protein expression, band value ([3]; 低 = gigantol 25 µmol/L): 127.912 and 180.721 and 187.495 | NLRP3 / β (reference protein) ratio ([3]; 高 = gigantol 100 µmol/L): 0.5752 and 0.7261 and 0.6462 | NLRP3 protein expression, band value ([3]; 高 = gigantol 100 µmol/L): 107.093 and 142.123 and 125.837 | NLRP3 protein level in HK-2 cells ([3]; 25 μmol/L gigantol, vs model group): moderately reduced | NLRP3 protein level in HK-2 cells [3, 9]: significantly reduced | NLRP3 protein level in HK-2 cells [3, 10]: decreased significantly | ASC protein expression in kidney [4]: decreased significantly | IL-6 level in HK-2 cells [5]: tended to decrease dose-dependently | inhibitory effect on IL-1β in HK-2 cells [6]: relatively weak | xod / β (reference protein) ratio ([7]; 中 = gigantol 50 µmol/L): 1.517 and 1.501 and 1.526 | xod protein expression, band value ([7]; 中 = gigantol 50 µmol/L): 128.129 and 199.117 and 168.261 | xod / β (reference protein) ratio ([7]; 低 = gigantol 25 µmol/L): 1.791 and 1.55 and 1.796 | xod protein expression, band value ([7]; 低 = gigantol 25 µmol/L): 141.242 and 241.421 and 177.271 | xod / β (reference protein) ratio ([7]; 高 = gigantol 100 µmol/L): 1.329 and 1.446 and 1.393 | xod protein expression, band value ([7]; 高 = gigantol 100 µmol/L): 108.633 and 187.088 and 176.298 | XOD protein expression in AML12 cells [7]: significantly decreased | XOD protein expression in AML12 cells ([7]; listed as Gigantol): downregulated | XOD protein expression in AML12 cells ([7]; listed as gigatol): significantly reduced in a dose-dependent manner | NLRP3 level in kidney [8]: decreased | NLRP3 level in serum [8]: decreased

— publication PMC12339328, “Therapeutic effect and mechanism of gigantol on hyperuricemia” (Frontiers in Endocrinology, 2025)
